This is an account of results in ChEMBL document CHEMBL3271974, “Synthesis of the antileukemic compound N,N(11)-[5-[bis(2-chloroethyl)amino]-1, 3-phenylene]bisurea” (J Med Chem, 1976).

Each structure is given as a SMILES string.

For data set [1], the system named is P388. As to the kind of experiment: Antitumor activity against mouse P388 cells allografted in mouse assessed as increase in survival rate at 225 mg/kg relative to control. The data set is classed as functional.
Data set [2] relates to Mus musculus. As to the kind of experiment: Toxicity in mouse allografted with mouse P388 cells at 225 mg/kg. In kind it is organism-based. The conditions noted are these: in vivo. Further details: dose 225 mg/kg.
In data set [3] the test system is Mus musculus. As to the kind of experiment: Toxicity in mouse allografted with mouse P388 cells at 120 mg/kg. In kind it is organism-based. The arrangement: dose 120 mg/kg. The conditions noted are these: in vivo.
Data set [4] relates to P388. In words: Antitumor activity against mouse P388 cells allografted in mouse assessed as increase in survival rate at 120 mg/kg relative to control. The data set is classed as functional.

A word on the T/C: it is the result in the treated group divided by that in the control group, in per cent. With `CC(=O)Nc1cc(NC(C)=O)cc(N(CCCl)CCCl)c1`, in the data set with P388 [1], the T/C is listed as 196%. For the same compound, the Activity result in the data set on Mus musculus [2] is listed as “Non-toxic”.

Regarding `NC(=O)Nc1cc(NC(N)=O)cc(N(CCCl)CCCl)c1`, the Activity entry in the data set on Mus musculus [3] is “Non-toxic”. In addition, the T/C with P388 [4] was 194%.
